Assay results from ChEMBL document CHEMBL2151013, “Diarylheptanoid sulfates and related compounds from Myrica rubra bark” (J Nat Prod, 2012).
Values after ≈ are worked out from the molar mass of the structure shown.

Tests used:
[1] = Antioxidant activity assessed as superoxide dismutase-like activity by SOD-WST assay; type: functional
[2] = Antioxidant activity assessed as trolox equivalent of […]-induced radical scavenging activity by ORAC fluorescence assay; type: functional

SMILES	IC50 [1] [µg/mL]	Activity [2] [µmolequiv/g]
COc1c2cc(c(O)c1OC)CCCCC(=O)CCc1ccc(O)c-2c1 [MYRICANONE]	> 1000	–
COc1c2cc(c(O[C@@H]3O[C@H](COC(=O)c4cc(O)c(O)c(O)c4)[C@@H](O)[C@H](O)[C@H]3O)c1OC)CCCC[C@@H](O)CCc1ccc(O)c-2c1	90.5 (≈ 135 µM)	–
COc1c2cc(c(O[C@@H]3O[C@H](COC(=O)c4cc(O)c(O)c(O)c4)[C@@H](O)[C@H](O)[C@H]3O)c1OC)CCCCC(=O)CCc1ccc(O)c-2c1	106.8 (≈ 159 µM)	–
O=C(O[C@@H]1[C@@H](c2c(O)cc(O)c3c2O[C@H](c2cc(O)c(O)c(O)c2)[C@H](OC(=O)c2cc(O)c(O)c(O)c2)C3)c2c(O)cc(O)cc2O[C@@H]1c1cc(O)c(O)c(O)c1)c1cc(O)c(O)c(O)c1	19.2 (≈ 21 µM)	–
C[C@H]1O[C@@H](Oc2c(-c3cc(O)c(O)c(O)c3)oc3cc(O)cc(O)c3c2=O)[C@@H](O)[C@@H](O)[C@@H]1O [MYRICITRIN]	127.5 (≈ 275 µM)	13200
O=C(O[C@@H]1Cc2c(O)cc(O)cc2O[C@@H]1c1cc(O)c(O)c(O)c1)c1cc(O)c(O)c(O)c1 [EPIGALOCATECHIN GALLATE]	26.1 (≈ 56.9 µM)	–
COc1cc2cc(c1O)-c1cc(ccc1O)CC[C@@H](OS(=O)(=O)O)CCCC2	> 1000	9620
O=C(O)c1cc(O)c(O)c(O)c1 [GALLIC ACID]	6.3 (≈ 37 µM)	–
O=c1c(O)c(-c2cc(O)c(O)c(O)c2)oc2cc(O)cc(O)c12 [MYRICETIN]	139.6 (≈ 439 µM)	16100
COc1c2cc(c(O[C@@H]3O[C@H](COC(=O)c4cc(O)c(O)c(O)c4)[C@@H](O)[C@H](O)[C@H]3O)c1OC)CCCC[C@H](O)CCc1ccc(O)c-2c1	139.6 (≈ 208 µM)	–
C[C@@H]1O[C@@H](Oc2c(-c3cc(O)c(O)c(O)c3)oc3cc(O)cc(O)c3c2=O)[C@H](OC(=O)c2cc(O)c(O)c(O)c2)[C@H](O)[C@H]1O	38.6 (≈ 62.6 µM)	–
COc1c2cc(c(O)c1OC)CCCC[C@@H](O)CCc1ccc(O)c-2c1	> 100	–
COc1c2cc(c(O)c1OC)CCCC[C@@H](OS(=O)(=O)O)CCc1ccc(O)c-2c1	786.9 (≈ 1790 µM)	8680
COC1=C(OC)C(=O)C2=C(CCCCC(O)CCc3ccc(O)c2c3)C1=O (stereo not drawn) [ACTINIDIONE]	7.9 (≈ 21.2 µM)	–
